Laboratory results as given in US6417359B1, “Pharmaceutical compositions and methods for use” (priority 1998, dated 2002).

Legend:
[1] = test system: nicotinic receptors associated with dopamine release; test: Dopamine release (receptor activation/inhibition); format: biochemical; details: for Emax, dopamine release: amount released relative to (S)-(−)-nicotine
Experimental: Determination of Receptor Activation/Inhibition and Dopamine Release
Dopamine release was measured using the techniques described in U.S. Pat. No. 5,597,919 to Dull et al. Release is expressed as a percentage of release obtained with a concentration of (S)-(−)-nicotine resulting in maximal effects. Reported EC50 values are expressed in nM, and Emax values represent the amount released relative to (S)-(−)-nicotine or tetramethylammonium ion (TMA), on a percentage basis.
Reported IC50 values are expressed in nM and represent the concentration resulting in 50% inhibition of agonist induced receptor activation. Emax values represent the amount released relative to (S)-(−)-nicotine on a percentage basis.

muscle-type receptors = muscle-type receptors (Homo sapiens, UniProt P02708+P07510+P11230+Q07001); test: Determination of interaction with muscle receptors; format: cell-based; details: percentage of maximal activation induced by (S)-(−)-nicotine
Experimental: Determination of Interaction with Muscle Receptors
(§1) The determination of the interaction of the compounds with muscle receptors was carried out in accordance with the techniques described in U.S. Pat. No. 5,597,919 to Dull et al. The maximal activation for individual compounds (Emax) was determined as a percentage of the maximal activation induced by (S)-(−)-nicotine. Reported Emax values represent the amount released relative to (S)-(−)-nicotine on a percentage basis.

ganglia-type receptors = test: Determination of interaction with ganglion receptors; format: cell-based; details: percentage of maximal activation induced by (S)-(−)-nicotine
Experimental: as §1, with “Determination of Interaction with Ganglion Receptors The determination” for “The determination”, “compounds with ganglionic receptors was” for “compounds with muscle receptors was”

Chain of muscle-type receptors (P02708 whole entry): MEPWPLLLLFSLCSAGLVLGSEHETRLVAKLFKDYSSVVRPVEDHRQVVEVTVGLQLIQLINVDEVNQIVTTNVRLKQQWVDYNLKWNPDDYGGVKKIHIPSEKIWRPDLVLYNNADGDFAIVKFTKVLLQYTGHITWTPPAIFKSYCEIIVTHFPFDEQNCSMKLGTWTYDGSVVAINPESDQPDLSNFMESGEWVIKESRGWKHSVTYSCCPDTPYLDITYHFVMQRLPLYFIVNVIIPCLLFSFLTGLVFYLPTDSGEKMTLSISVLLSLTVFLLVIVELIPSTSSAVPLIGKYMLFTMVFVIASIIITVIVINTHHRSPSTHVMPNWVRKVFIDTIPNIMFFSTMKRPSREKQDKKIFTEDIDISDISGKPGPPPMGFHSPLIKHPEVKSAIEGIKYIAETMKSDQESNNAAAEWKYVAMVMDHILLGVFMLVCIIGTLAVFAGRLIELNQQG
Chain of muscle-type receptors (P11230 24-501): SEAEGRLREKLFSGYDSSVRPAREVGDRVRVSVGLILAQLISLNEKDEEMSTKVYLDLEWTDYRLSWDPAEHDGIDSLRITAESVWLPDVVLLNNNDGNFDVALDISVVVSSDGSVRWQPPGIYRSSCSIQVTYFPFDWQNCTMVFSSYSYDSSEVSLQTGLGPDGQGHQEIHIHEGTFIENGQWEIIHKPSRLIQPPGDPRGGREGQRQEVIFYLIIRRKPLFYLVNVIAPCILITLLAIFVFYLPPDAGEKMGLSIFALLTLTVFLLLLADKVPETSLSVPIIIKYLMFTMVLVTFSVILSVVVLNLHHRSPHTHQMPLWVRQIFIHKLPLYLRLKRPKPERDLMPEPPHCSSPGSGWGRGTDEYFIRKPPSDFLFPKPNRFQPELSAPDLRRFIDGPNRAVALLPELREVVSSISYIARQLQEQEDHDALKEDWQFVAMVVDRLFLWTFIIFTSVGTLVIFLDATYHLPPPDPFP
Chain of muscle-type receptors (P07510 23-517): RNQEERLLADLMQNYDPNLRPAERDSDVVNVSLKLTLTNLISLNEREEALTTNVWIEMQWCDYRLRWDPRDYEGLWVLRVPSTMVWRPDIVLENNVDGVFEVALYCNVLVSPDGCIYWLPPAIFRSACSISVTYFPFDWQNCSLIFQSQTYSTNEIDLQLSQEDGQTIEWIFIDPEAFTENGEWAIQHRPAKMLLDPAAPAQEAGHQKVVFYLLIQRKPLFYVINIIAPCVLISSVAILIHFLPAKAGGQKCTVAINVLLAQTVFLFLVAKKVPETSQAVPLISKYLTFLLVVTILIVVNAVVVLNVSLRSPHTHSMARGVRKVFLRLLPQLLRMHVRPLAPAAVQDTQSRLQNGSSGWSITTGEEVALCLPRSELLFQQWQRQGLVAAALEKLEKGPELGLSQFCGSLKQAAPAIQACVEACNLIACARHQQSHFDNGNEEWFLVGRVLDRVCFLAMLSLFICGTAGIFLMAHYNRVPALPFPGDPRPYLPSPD
Chain of muscle-type receptors (Q07001 22-517): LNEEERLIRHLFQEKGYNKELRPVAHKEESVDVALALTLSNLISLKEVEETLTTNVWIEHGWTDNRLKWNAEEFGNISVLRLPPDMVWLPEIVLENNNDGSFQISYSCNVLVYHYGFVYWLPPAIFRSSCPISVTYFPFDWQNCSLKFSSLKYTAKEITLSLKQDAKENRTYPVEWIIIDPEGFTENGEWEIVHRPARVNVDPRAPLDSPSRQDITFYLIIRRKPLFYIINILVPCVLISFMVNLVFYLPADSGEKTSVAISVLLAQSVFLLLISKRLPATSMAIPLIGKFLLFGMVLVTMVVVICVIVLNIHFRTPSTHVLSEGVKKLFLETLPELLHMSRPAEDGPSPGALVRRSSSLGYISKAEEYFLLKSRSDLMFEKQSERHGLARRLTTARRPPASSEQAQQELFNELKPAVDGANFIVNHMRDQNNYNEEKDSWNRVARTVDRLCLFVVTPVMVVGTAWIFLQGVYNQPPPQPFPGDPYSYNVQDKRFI

c1cncc(C2C3CC4CC(C3)CN2C4)c1 (centres unmarked) [Sample No. 1, 1-aza-2-(3-pyridyl)-tricyclo[3.3.1.1^3,7]decane]
Emax, dopamine release [1]: 0% | Emax (muscle-type receptors): 21% | Emax at ganglia-type receptors (ganglia-type receptors): 27%

Brc1cncc(C2C3CC4CC(C3)CN2C4)c1 (centres unmarked) [Sample No. 2, 1-aza-2-[5-bromo(3-pyridyl)]tricyclo[3.3.1.1^3,7]decane]
EC50 [1]: > 100 µM | Emax, dopamine release [1]: 0% | Emax (muscle-type receptors): 32% | Emax at ganglia-type receptors (ganglia-type receptors): 50%

Cl.Cl.Cl.Nc1cncc(C2C3CC4CC(C3)CN2C4)c1 (centres unmarked) [Sample No. 3, 1-aza-2-[5-amino-(3-pyridyl)]tricyclo[3.3.1.1^3,7]decane trihydrochloride]
EC50 [1]: > 100 µM | Emax, dopamine release [1]: 0% | Emax (muscle-type receptors): 75% | Emax at ganglia-type receptors (ganglia-type receptors): 17%

CCOc1cncc(C2C3CC4CC(C3)CN2C4)c1 (centres unmarked) [Sample No. 4, 1-aza-2-[5-ethoxy-(3-pyridyl)]-tricyclo-[3.3.1.1^3,7]decane]
EC50 [1]: > 100 µM | Emax, dopamine release [1]: 0% | IC50 ([1]; concentration resulting in 50% inhibition of agonist induced receptor activation): 0.846 µM | Emax (muscle-type receptors): 22% | Emax at ganglia-type receptors (ganglia-type receptors): 0%

CC(C)Oc1cncc(C2C3CC4CC(C3)CN2C4)c1 (centres unmarked) [Sample No. 5, 1-aza-2-[5-isopropoxy-(3-pyridyl)]tricyclo[3.3.1.1^3,7]decane]
EC50 [1]: > 100 µM | Emax, dopamine release [1]: 0% | Emax (muscle-type receptors): 114% | Emax at ganglia-type receptors (ganglia-type receptors): 7%
